Patent publication US11332470B2, “CXCR4 inhibitors and uses thereof” (X4 Pharmaceuticals, Inc., priority 2016, dated 2022)

How the values were obtained:
[1] = target: T1, CXCR4 (U87.CXCR4 cells) (Homo sapiens, UniProt P61073); assay: Intracellular CXCL-12-induced calcium mobilization assay (FLIPR); type: cell-based; details: CXCL-12 25-50 ng/mL, read-out: IC50 CXCL-12 Ca2+ flux U87.CXCR4+
T1 construct: expressed in transfected cells; host or cells: U87 (U87.CXCR4)
Description: Intracellular CXCL-12-Induced Calcium Mobilization Assay
Intracellular calcium mobilization induced by chemokines or chemokine-derived peptides were evaluated using a calcium responsive fluorescent probe and a FLIPR system. The CXCR-4 transfected U87 cell line (U87.CXCR4) cells were seeded in gelatine-coated black-wall 96-well plates at 20,000 cells per well and incubated for 12 hours. Cells were then loaded with the fluorescent calcium probe Fluo-2 acetoxymethyl at 4 μM final concentration in assay buffer (Hanks' balanced salt solution with 20 mM HEPES buffer and 0.2% bovine serum albumin, pH 7.4) for 45 min at 37° C. The intracellular calcium mobilization induced by the CXCL-12 (25-50 ng/mL) was then measured at 37° C. by monitoring the fluorescence as a function of time in all the wells simultaneously using a fluorometric imaging plate reader (FLIPR Tetra, Molecular Devices).

[2] = target: T2, CXCR4 (Jurkat cells expressing CXCR4) (Homo sapiens, UniProt P61073); assay: Chemokine (CXCL12-AF647) binding inhibition assay; details: CXCL12-AF647 25 ng/mL, read-out: IC50 CXCL-12 binding Jurkat
T2 construct: Jurkat cells expressing CXCR4; endogenous in cells; host or cells: Jurkat
Description: Chemokine (CXCL12-AF647) Binding Inhibition Assay
Jurkat cells expressing CXCR4 were washed once with assay buffer (Hanks' balanced salt solution with 20 mM HEPES buffer and 0.2% bovine serum albumin, pH 7.4) and then incubated for 15 min at room temperature with the test compounds diluted in assay buffer at dose-dependent concentrations. Subsequently, CXCL12-AF647 (25 ng/mL) was added to the compound-incubated cells. The cells were incubated for 30 min at room temperature. Thereafter, the cells were washed twice in assay buffer, fixed in 1% paraformaldehyde in PBS, and analyzed on the FL4 channel of a FACSCalibur flow cytometer equipped with a 635-nm red diode laser (Becton Dickinson, San Jose, Calif., USA).
The percentages of inhibition of CXCL12-AF647 binding were calculated according to the formula: [1−((MFI−MFINC)/(MFIPC−MFINC))]×100 where MFI is the mean fluorescence intensity of the cells incubated with CXCL12-AF647 in the presence of the inhibitor, MFINC is the mean fluorescence intensity measured in the negative control (i.e., autofluorescence of unlabeled cells), and MFIPC is the mean fluorescence intensity of the positive control (i.e., cells exposed to CXCL12-AF647 alone).

[3] = in vitro; details: human, Caco-2, pH 7.4
Description: The goal of this assay was to evaluate the intestinal absorption potential of drug candidates using Caco-2 cell lines.
1. Prewarm Prewarm HBSS Buffer in 37° C. water bath
2. Sonicate Take compounds from −20° C., sonicate for a few minutes (no less than 1 minute)
• Donor solution buffer: For A-to-B Direction: HBSS buffer with 0.3% DMSO and 5 μM LY: add 150 μL DMSO and 50 μL LY (5 mM) into 50 ml HBSS buffer (pH 7.4). HBSS buffer with 0.1% DMSO and 5 μM LY: add 50 μL DMSO and 50 μL LY (5 mM) into 50 mL HBSS buffer (pH 7.4). For B-to-A Direction: HBSS buffer with 0.3% DMSO: add 150 μL DMSO into 50 ml HBSS buffer (pH 7.4). HBSS buffer with 0.1% DMSO: add 50 μL DMSO into 50 ml HBSS buffer (pH 7.4). Receiver Solution Buffer: For A-to-B Direction: Prepare HBSS buffer with 0.4% DMSO: add 200 μL DMSO into 50 ml HBSS buffer (pH 7.4). For B-to-A Direction: Prepare HBSS buffer with 0.4% DMSO and 5 μM LY: add 200 μL DMSO and 50 μL LY (5 mM) into 50 ml HBSS buffer (pH 7.4).
4. Measure TEER Take cell culture plate out of incubator, wash the cell monolayers with HBSS buffer, and then measure TEER values at Rm temperature. 5. Centrifuge Centrifuge the compound solution (from step 3) at 4000 rpm for 5 min before loading to donor chambers. 6. Dosing Add solution based on the volumes listed in the following table (make sure to take extra 100 μL of donor sample for TO as Backup).
7. Apical LYT0 samples To determine LY concentration in the apical chamber, take 100 μL sample from apical chambers into an opaque plate for LYT0. 8. Prewarm Prewarm apical and basolateral plates at 37° C. for about 5 min, then begin transport by placing the apical plate onto basolateral plate. 9. Incubation Keep the plates in incubator at 37° C. for 90 min. 10.
Prepare Working Solution in MeOH/H2O (1:1)
• Prepare 1×solution: 3 μL (20×)+57 μL of 0.4% DMSO HBSS+60 μL ACN with IS (Osalmid or Imipramine)−120 μL (1×) 11. Transport termination Separate the apical plate from the basolateral plate after 90-min incubation. 12. Measure LY Take 100 μL samples from basolateral plate to an opaque plate as LYT90. 13. Measure LY concentrations for LYT0 and LYT90 by Fluorometer (at excitation of 485 nm/emission of 535 nm). 14.
Study details: Test concentration 10 μM
Test systems: Caco-2/HBSS solution
Incubation conditions: 0, 90 min at 37° C.
Sample size: Duplicates (n=2)
Bioanalytical method: LC-MS/MS
For Millicell-24 Cell Culture Plates: surface area of the membrane=0.7 cm^2, VA=0.8 mL (A-to-B) or 0.4 mL (B-to-A)
The compound numbers correspond to the compound numbers in Table 1.

T2 sequence (P61073 whole entry): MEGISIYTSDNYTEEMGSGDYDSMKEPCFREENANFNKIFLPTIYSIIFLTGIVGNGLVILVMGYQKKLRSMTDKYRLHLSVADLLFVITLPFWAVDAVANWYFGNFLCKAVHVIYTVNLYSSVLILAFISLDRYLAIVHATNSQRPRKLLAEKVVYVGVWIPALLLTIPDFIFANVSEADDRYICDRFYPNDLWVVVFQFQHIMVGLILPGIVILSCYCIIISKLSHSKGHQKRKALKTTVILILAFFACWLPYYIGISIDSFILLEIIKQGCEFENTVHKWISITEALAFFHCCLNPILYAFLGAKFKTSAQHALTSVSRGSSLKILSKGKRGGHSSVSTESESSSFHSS
T1 sequence (P61073 whole entry): as above

Row | Compound | IC50 [1] [nM] | IC50 [2] [nM] | Papp A→B at 90 min, 10 μM [3] [×10⁻⁶ cm/s] | Papp B→A at 90 min, 10 μM [3] [×10⁻⁶ cm/s] | efflux ratio at 90 min, 10 μM [3]
1 | Cc1cccnc1C1CCCN1Cc1nc2cccc(N3CCN(C)C4(CC4)C3)c2[nH]1 (stereo not shown) [Compound I-28] | 100 to 1000 | 100 to 1000 | 0.1 to 10 | 10 to 30 | 0.1 to 10
2 | Cc1cccnc1C1CCCN1Cc1cn2c(N3CCN(C4CC4)CC3)cccc2n1 (stereo not shown) [Compound I-32] | 100 to 1000 | 100 to 1000 | 0.1 to 10 | 10 to 30 | 0.1 to 10
3 | Cc1cccnc1C1CCCN1Cc1nc2cccc(N3CCN(C)CC3)n2c1F (stereo not shown) [Compound I-34] | 100 to 1000 | 100 to 1000 | 0.1 to 10 | 10 to 30 | 0.1 to 10
4 | CN1CCN(c2cccc3nc(CN4CCCC4c4ncccc4Cl)c(F)n23)CC1 (stereo not shown) [Compound I-35] | ≥ 1000 | 100 to 1000 | 0.1 to 10 | 10 to 30 | 0.1 to 10
5 | Cc1cccnc1C1CCCN1Cc1nccn1C1CCN(C)CC1 (stereo not shown) [Compound I-36] | ≥ 1000 | 100 to 1000 | 0.1 to 10 | > 30 | 0.1 to 10
6 | Cc1cccnc1C1CCCN1Cc1nc2cccc(N3CCN(C)CC3)c2s1 (stereo not shown) [Compound I-37] | ≥ 1000 | 100 to 1000 | 10 to 30 | 10 to 30 | 0.1 to 10
7 | Cc1cccnc1C1CCCN1Cc1ccccn1 (stereo not shown) [Compound I-39] | ≥ 1000 | 100 to 1000 | 10 to 30 | 10 to 30 | 0.1 to 10
8 | Cc1cccnc1C1CCCN1Cc1nc2ccccn2c1N1CCN(C)CC1 (stereo not shown) [Compound I-40] | 0.01 to 100 | 0.01 to 100 | 0.1 to 10 | > 30 | 10 to 30
9 | CN1CCN(c2cccc3nc(CN4CCCC4c4ccccn4)[nH]c23)CC1 (stereo not shown) [Compound I-44] | 100 to 1000 | 0.01 to 100 | 10 to 30 | > 30 | 0.1 to 10
10 | Cc1cccnc1C1CCCN1Cc1nc2cccc(N3CCN(C)CC3)n2c1C (stereo not shown) [Compound I-46] | 100 to 1000 | 0.01 to 100 | 0.1 to 10 | 10 to 30 | > 30
11 | Cc1c(CN2CCCC2c2ncccc2Cl)nc2cccc(N3CCN(C)CC3)n12 (stereo not shown) [Compound I-47] | 100 to 1000 | 0.01 to 100 | 0.1 to 10 | 10 to 30 | 0.1 to 10
12 | Cc1cccnc1C1CCCN1Cc1nc2cccc(N3CCN4CCCC4C3)c2[nH]1 (stereo not shown) [Compound I-48] | 0.01 to 100 | 0.01 to 100 | 0.1 to 10 | 10 to 30 | 0.1 to 10
13 | CN1CCN(c2cccc3nc(CN4CCCC4c4nccs4)[nH]c23)CC1 (stereo not shown) [Compound I-49] | ≥ 1000 | ≥ 1000 | 10 to 30 | 10 to 30 | 0.1 to 10
14 | CN1CCN(c2cccc3nc(CN4CCCC4c4ncc[nH]4)cn23)CC1 (stereo not shown) [Compound I-50] | ≥ 1000 | ≥ 1000 | 0.1 to 10 | 10 to 30 | 0.1 to 10
15 | CN1CCN(c2cccc3[nH]c(CN4CCCC4c4nccn4C)nc23)CC1 (stereo not shown) [Compound I-51] | ≥ 1000 | 100 to 1000 | 0.1 to 10 | 10 to 30 | 0.1 to 10
16 | Cc1cccnc1C1CCCN1Cc1nccn1CC1CCN(C)CC1 (stereo not shown) [Compound I-52] | 0.01 to 100 | 0.01 to 100 | 0.1 to 10 | 10 to 30 | 0.1 to 10
17 | Cc1cccnc1C1CCCN1Cc1ncccc1N1CCN(C)CC1 (stereo not shown) [Compound I-53] | ≥ 1000 | 0.01 to 100 | 0.1 to 10 | 10 to 30 | 0.1 to 10
18 | CN1CCC(n2c(CN3CCCC3c3ccccn3)nc3ccccc32)CC1 (stereo not shown) [Compound I-54] | 100 to 1000 | 0.01 to 100 | 10 to 30 | 10 to 30 | 0.1 to 10
19 | CN1CCC(n2ccnc2CN2CCCC2c2ccccn2)CC1 (stereo not shown) [Compound I-55] | ≥ 1000 | 100 to 1000 | 0.1 to 10 | 10 to 30 | 0.1 to 10
20 | CN1CCN(c2cccnc2CN2CCCC2c2ccccn2)CC1 (stereo not shown) [Compound I-56] | ≥ 1000 | 100 to 1000 | 10 to 30 | 10 to 30 | 0.1 to 10
21 | c1ccc(C2CCCN2Cc2nc3ccccn3c2N2CCN(C3CC3)CC2)nc1 (stereo not shown) [Compound I-57] | 100 to 1000 | 0.01 to 100 | 10 to 30 | 10 to 30 | 0.1 to 10
22 | CN1CCN(c2c(CN3CCCC3c3ncccc3F)nc3ccccn23)CC1 (stereo not shown) [Compound I-60] | 0.01 to 100 | 0.01 to 100 | 10 to 30 | 10 to 30 | 0.1 to 10
23 | CN1CCN(c2c(CN3CCCC3c3ccccn3)nc3c(F)cccn23)CC1 (stereo not shown) [Compound I-61] | 100 to 1000 | 0.01 to 100 | 10 to 30 | 10 to 30 | 0.1 to 10
24 | CN1CCN(c2c(CN3CCCC3c3ccccn3)nc3cc(F)ccn23)CC1 (stereo not shown) [Compound I-62] | 0.01 to 100 | 0.01 to 100 | 0.1 to 10 | 10 to 30 | 0.1 to 10
25 | CN1CCN(c2c(CN3CCCC3c3ccccn3)nc3cccc(F)n23)CC1 (stereo not shown) [Compound I-64] | 100 to 1000 | 0.01 to 100 | 0.1 to 10 | 10 to 30 | 0.1 to 10
26 | c1ccc(C2CCCN2Cc2ccccc2-n2cccn2)nc1 (stereo not shown) [Compound I-65] | ≥ 1000 | 100 to 1000 | > 30 | > 30 | 0.1 to 10
